In ChEMBL document CHEMBL1123520, “Digitoxigenin 3-O-beta-D-furanosides” (1986):

How the values were obtained:
Assay type in all cases: functional
[1] = species on record: Cavia porcellus; experiment: Dose required to produce 50% increase in developed tension of inotropic effect in guinea pig atria.
[2] = species on record: Cavia porcellus; experiment: Dose required to produce negative inotropic (NI) or arrhythmia (A) effect in Guinea pig atria.
[3] = species on record: Cavia porcellus; experiment: Dose required to produce 75% increase in developed tension of inotropic effect in guinea pig atria.
[4] = species on record: Cavia porcellus; experiment: Dose required to produce negative inotropic (NI) effect in Guinea pig atria; MI is Minimal Activity
[5] = species on record: Cavia porcellus; experiment: Dose required to produce negative inotropic (NI) effect in Guinea pig atria.
[6] = species on record: Cavia porcellus; experiment: Dose required to produce arrhythmia (A) on Guinea pig atria.
[7] = species on record: Cavia porcellus; experiment: Dose required to produce 75% increase in developed tension of inotropic effect in guinea pig atria; MI is Minimal Activity

With `C[C@]12CC[C@H](O[C@@H]3O[C@H](CN=[N+]=[N-])[C@@H](O)[C@H]3O)C[C@@H]1CC[C@@H]1[C@@H]2CC[C@]2(C)[C@@H](C3=CC(=O)OC3)CC[C@@]12O` the Dose [1] was 0.25 µM, the Dose [2] was 1 µM and the Dose [3] was 0.43 µM.
`CC(=O)OC[C@H]1O[C@@H](OC2CC[C@@]3(C)C(CC[C@@H]4[C@@H]3CC[C@]3(C)[C@@H](C5=CC(=O)OC5)CC[C@@]43O)C2)[C@H](OC(C)=O)[C@@H]1OC(C)=O` (stereo not given in full) was tested, and the Dose [4] was “Minimal activity”, the Dose [1] was 1.9 µM and the Dose [3] was 3 µM.
In the case of `CC(=O)O[C@H]1[C@H](OC2CC[C@@]3(C)C(CCC4[C@@H]3CC[C@]3(C)[C@@H](C5=CC(=O)OC5)CC[C@@]43O)C2)O[C@H](CN=[N+]=[N-])[C@H]1OC(C)=O` (stereo not given in full), the Dose [5] is reported as 2.5 µM, the Dose [1] is reported as 0.3 µM and the Dose [3] is reported as 0.44 µM.
`C[C@]12CC[C@H](O)C[C@H]1CC[C@@H]1[C@@H]2CC[C@]2(C)[C@@H](C3=CC(=O)OC3)CC[C@]12O` [DIGITOXIGENIN] gave a Dose [5] of 2.5 µM, a Dose [1] of 0.38 µM and a Dose [3] of 0.64 µM.
`CC(=O)O[C@H]1[C@H](OC2CC[C@@]3(C)C(CC[C@@H]4[C@@H]3CC[C@]3(C)[C@@H](C5=CC(=O)OC5)CC[C@@]43O)C2)O[C@H]2[C@@H]1N(C(=O)C(F)(F)F)C[C@H]2OC(C)=O` (stereo not given in full) showed a Dose [5] of 1 µM, a Dose [6] of 0.75 µM and a Dose [1] of 0.54 µM. The Dose [3] was 0.65 µM.
`C[C@]12CC[C@H](O[C@@H]3O[C@H](CO)[C@@H](O)[C@H]3O)C[C@@H]1CC[C@@H]1[C@@H]2CC[C@]2(C)[C@@H](C3=CC(=O)OC3)CC[C@@]12O` was tested, and the Dose [5] was 2.5 µM, the Dose [1] was 0.36 µM and the Dose [3] was 0.64 µM.
`C[C@]12CC[C@H](O[C@@H]3O[C@H](CN)[C@@H](O)[C@H]3O)C[C@@H]1CC[C@@H]1[C@@H]2CC[C@]2(C)[C@@H](C3=CC(=O)OC3)CC[C@@]12O` gave a Dose [1] of 0.26 µM, a Dose [2] of 5 µM and a Dose [3] of 0.35 µM.
`CC(=O)O[C@H]1[C@H](OC2CC[C@@]3(C)C(CC[C@@H]4[C@@H]3CC[C@]3(C)[C@@H](C5=CC(=O)OC5)CC[C@@]43O)C2)O[C@H]2[C@@H]1OC[C@H]2OC(C)=O` (stereo not given in full) showed a Dose [1] of 0.39 µM, a Dose [2] of 1 µM and a Dose [3] of 0.53 µM.
For `C[C@H]1O[C@@H](O[C@H]2[C@@H](O)C[C@H](O[C@H]3[C@@H](O)C[C@H](O[C@H]4CC[C@@]5(C)[C@H](CC[C@@H]6[C@@H]5C[C@@H](O)[C@]5(C)[C@@H](C7=CC(=O)OC7)CC[C@]65O)C4)O[C@@H]3C)O[C@@H]2C)C[C@H](O)[C@@H]1O` [DIGOXIN], the Dose [5] was 2.5 µM, the Dose [1] was 0.42 µM and the Dose [3] was 0.82 µM.
Work on `C[C@]12CCC(O[C@@H]3O[C@H]4[C@H](NC[C@H]4O)[C@H]3O)CC1CC[C@@H]1[C@@H]2CC[C@]2(C)[C@@H](C3=CC(=O)OC3)CC[C@@]12O` (stereo not given in full) yielded a Dose [5] of 2 µM, a Dose [6] of 1.5 µM and a Dose [1] of 0.5 µM. It also gave a Dose [3] of 0.86 µM.
With `C[C@]12CCC(O[C@@H]3O[C@H]4[C@H](OC[C@H]4O)[C@H]3O)CC1CC[C@@H]1[C@@H]2CC[C@]2(C)[C@@H](C3=CC(=O)OC3)CC[C@@]12O` (stereo not given in full) the Dose [7] was “Minimal activity”, the Dose [4] was “Minimal activity” and the Dose [1] was 10 µM.
